# Measurements: paper PMC6001238, “Iterative Chemical Engineering of Vancomycin Leads to Novel Vancomycin Analogs With a High in Vitro Therapeutic Index” (Frontiers in Microbiology, 2018)
# Like-named read-outs stand apart in the source and are kept apart here.
# Key:
# E. faecalis VSE 1 = assay: MIC, broth microdilution, vancomycin-sensitive E. faecalis (VSE 1); assay type: cell-based, Enterococcus faecalis
# In short: (§1)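 Controls (ultrapure water; broth not inoculated) were included throughout CLSI-compliant broth microdilution. One condition supplemented analogue or comparator with 10 μM vancomycin, final level.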
# E. faecalis VRE 6 = assay: MIC, broth microdilution, vancomycin-resistant E. faecalis VRE 6 (VanA); assay type: cell-based, Enterococcus faecalis
# In short: as §1
# E. faecalis VRE 53 = assay: MIC, broth microdilution, vancomycin-resistant E. faecalis VRE 53 (VanA); assay type: cell-based, Enterococcus faecalis
# In short: as §1
# E. faecalis VRE 29 = assay: MIC, broth microdilution, vancomycin-resistant E. faecalis VRE 29 (VanA); assay type: cell-based, Enterococcus faecalis
# In short: as §1
# E. faecalis VRE 37 = assay: MIC, broth microdilution, vancomycin-resistant E. faecalis VRE 37 (VanA); assay type: cell-based, Enterococcus faecalis
# In short: as §1
# [1] = test system: Murine leukemia (L1210) cells; assay: Cytostatic activity, L1210 cell proliferation; assay type: cell-based; conditions: mean ± SD of three experiments; highest concentration tested 250 µM; 2 days; read-out: Toxicity (IC50) L1210
# In short: (§2)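 Coulter counter cell counts after 37°C culture with compound; IC50 = concentration giving 50% growth inhibition vs negative control. Incubation: L1210 2 d, CEM 3 d, HeLa 4 d. Suspension density before mixing with an equal volume of dilution: 300,000–500,000 cells/mL.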
# [2] = test system: human T-lymphocyte (CEM) cells; assay: Cytostatic activity, CEM cell proliferation; assay type: cell-based; conditions: mean ± SD of three experiments; highest concentration tested 250 µM; 3 days; read-out: Toxicity (IC50) CEM
# In short: as §2
# [3] = test system: human cervix carcinoma (HeLa) cells; assay: Cytostatic activity, HeLa cell proliferation; assay type: cell-based; conditions: mean ± SD of three experiments; highest concentration tested 250 µM; 4 days; read-out: Toxicity (IC50) HeLa
# In short: as §2
# [4] = test system: L1210, CEM and HeLa cell lines; assay: Cytostatic activity, average or summary over L1210, CEM and HeLa; assay type: cell-based
# In short: as §2
# [5] = test system: S. aureus VSSA (ATCC 6538); assay: MIC, broth microdilution, vancomycin-sensitive S. aureus (VSSA/MSSA, ATCC 6538); assay type: cell-based, Staphylococcus aureus
# In short: as §1
# S. aureus VISA/HIP5827 = assay: MIC, broth microdilution, vancomycin-intermediate S. aureus VISA HIP5827; assay type: cell-based, Staphylococcus aureus
# In short: as §1
# S. aureus VRSA = assay: MIC, broth microdilution, vancomycin-resistant S. aureus (VRSA); assay type: cell-based, Staphylococcus aureus
# In short: as §1
# MRSA KS2 = assay: MIC, broth microdilution, MRSA KS2; assay type: cell-based, Staphylococcus aureus
# In short: as §1
# MRSA KS6 = assay: MIC, broth microdilution, MRSA KS6; assay type: cell-based, Staphylococcus aureus
# In short: as §1
# MRSA KS89 = assay: MIC, broth microdilution, MRSA KS89; assay type: cell-based, Staphylococcus aureus
# In short: as §1
# MRSA KS1 = assay: MIC, broth microdilution, MRSA KS1; assay type: cell-based, Staphylococcus aureus
# In short: as §1
# 33 clinical VRE isolates = assay: MIC against a set of 33 clinical VRE isolates (range, MIC50, TI); assay type: cell-based, Enterococcus faecalis
# In short: as §1
# [6] = test system: 24 clinical MRSA isolates; assay: MIC against a set of 24 clinical MRSA isolates (range, MIC50, TI); assay type: cell-based, Staphylococcus aureus
# In short: as §1
# [7] = test system: Clostridium difficile ATJ ribotype 014/20; assay: MIC, plate drop assay, C. difficile ATJ ribotype 014/20; assay type: cell-based; conditions: for MIC-fold improvement vs. vancomycin: C. difficile ATJ ribotype 014/20
# In short: (§3)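 Lawns of each strain were made in soft BHI agar (0.4%) supplemented with CaCl2⋅2H2O and MgCl2⋅6H2O. Twofold compound dilutions (10 μL) were spotted, air-dried and incubated overnight at 37°C anaerobically; MIC read as cleared spots, in triplicate with water as negative control.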
# [8] = test system: Clostridium difficile AIU ribotype 027; assay: MIC, plate drop assay, C. difficile AIU ribotype 027; assay type: cell-based; conditions: for MIC-fold improvement vs. vancomycin: C. difficile AIU ribotype 027
# In short: as §3
# VE 148 (VanB) = assay: MIC, VanB-type VRE strain VE 148; assay type: cell-based, Enterococcus; conditions: VE 148, VanB; read-out: MIC
# In short: as §1
# VE 149 (VanB) = assay: MIC, VanB-type VRE strain VE 149; assay type: cell-based, Enterococcus; conditions: VE 149, VanB; read-out: MIC
# In short: as §1
# VE 150 (VanB) = assay: MIC, VanB-type VRE strain VE 150; assay type: cell-based, Enterococcus; conditions: VE 150, VanB; read-out: MIC
# In short: as §1
# VE 152 (VanB) = assay: MIC, VanB-type VRE strain VE 152; assay type: cell-based, Enterococcus; conditions: VE 152, VanB; read-out: MIC
# In short: as §1
# VE 157 (VanB) = assay: MIC, VanB-type VRE strain VE 157; assay type: cell-based, Enterococcus; conditions: VE 157, VanB; read-out: MIC
# In short: as §1
# VE 82 (VanC1) = assay: MIC, VanC1-type VRE strain VE 82; assay type: cell-based, Enterococcus gallinarum; conditions: VE 82, VanC1; read-out: MIC
# In short: as §1
# MRSA = assay: Minimum bactericidal concentration against MRSA; assay type: cell-based, Staphylococcus aureus
# Protocol: Plates were incubated overnight at 37°C and colony growth was inspected.
structure (smiles),measurement,setting,value
CNC(CC(C)C)C(=O)NC1C(=O)NC(CC(N)=O)C(=O)NC2C(=O)NC3C(=O)NC(C(=O)NC(C(=O)NCCCNC(=O)c4ccc5cc(NS(=O)(=O)c6ccc(C(C)C)cc6)ccc5c4)c4cc(O)cc(O)c4-c4cc3ccc4O)C(O)c3ccc(c(Cl)c3)Oc3cc2cc(c3OC2OC(CO)C(O)C(O)C2OC2CC(C)(N)C(O)C(C)O2)Oc2ccc(cc2Cl)C1O (stereo not drawn) [Vanc-66],MIC,"E. faecalis VSE 1; Enterococcus faecalis VSE 1 (vancomycin-sensitive), read-out: MIC",0.39 µM
same,MIC-fold improvement vs. vancomycin,"E. faecalis VSE 1; VSE 1, ratio of MIC of vancomycin and MIC of analogue",4
same,MIC,"E. faecalis VRE 6; Enterococcus faecalis VRE 6 (vancomycin-resistant), read-out: MIC",1.56 µM
same,MIC-fold improvement vs. vancomycin,"E. faecalis VRE 6; VRE 6, ratio of MIC of vancomycin and MIC of analogue",128
same,MIC,"E. faecalis VRE 53; Enterococcus faecalis VRE 53 (vancomycin-resistant), read-out: MIC",25 µM
same,MIC-fold improvement vs. vancomycin,"E. faecalis VRE 53; VRE 53, ratio of MIC of vancomycin and MIC of analogue",16
same,MIC,"E. faecalis VRE 29; Enterococcus faecalis VRE 29 (vancomycin-resistant), read-out: MIC",3.13 µM
same,MIC-fold improvement vs. vancomycin,"E. faecalis VRE 29; VRE 29, ratio of MIC of vancomycin and MIC of analogue",128
same,MIC,"E. faecalis VRE 37; Enterococcus faecalis VRE 37 (vancomycin-resistant), read-out: MIC",3.13 µM
same,MIC-fold improvement vs. vancomycin,"E. faecalis VRE 37; VRE 37, ratio of MIC of vancomycin and MIC of analogue",128
same,IC50,[1],> 250 µM
same,IC50,[2],243 ± 10 µM
same,IC50,[3],78 ± 49 µM
same,IC50,"[4]; average IC50 used for TI in Table S5, >250 entered as 250, read-out: IC50",190 µM
same,IC50,"[4]; average of L1210, CEM and HeLa, read-out: Toxicity (IC50) Average",190 µM
same,MIC,"[5]; Staphylococcus aureus VSSA, read-out: MIC",0.78 µM
same,MIC-fold improvement vs. vancomycin,"[5]; VSSA, ratio of MIC of vancomycin and MIC of analogue",1
same,MIC,"S. aureus VISA/HIP5827; Staphylococcus aureus VISA/HIP5827, read-out: MIC",0.78 µM
same,MIC-fold improvement vs. vancomycin,"S. aureus VISA/HIP5827; VISA/HIP5827, ratio of MIC of vancomycin and MIC of analogue",8
same,MIC,"S. aureus VRSA; Staphylococcus aureus VRSA, read-out: MIC",0.39 µM
same,MIC-fold improvement vs. vancomycin,"S. aureus VRSA; VRSA, ratio of MIC of vancomycin and MIC of analogue",256
same,MIC-fold improvement vs. vancomycin,"MRSA KS2; MRSA KS2, ratio of MIC of vancomycin and MIC of analogue",2
same,MIC,"MRSA KS2; Staphylococcus aureus MRSA KS2, read-out: MIC",0.39 µM
same,MIC-fold improvement vs. vancomycin,"MRSA KS6; MRSA KS6, ratio of MIC of vancomycin and MIC of analogue",4
same,MIC,"MRSA KS6; Staphylococcus aureus MRSA KS6, read-out: MIC",0.20 µM
same,MIC-fold improvement vs. vancomycin,"MRSA KS89; MRSA KS8, ratio of MIC of vancomycin and MIC of analogue",2
same,MIC,"MRSA KS89; Staphylococcus aureus MRSA KS8, read-out: MIC",0.39 µM
same,MIC-fold improvement vs. vancomycin,"MRSA KS1; MRSA KS1, ratio of MIC of vancomycin and MIC of analogue",1
same,MIC,"MRSA KS1; Staphylococcus aureus MRSA KS1, read-out: MIC",0.78 µM
same,MIC Range,33 clinical VRE isolates; 33 clinical VRE isolates,1.56 to 12.5 µM
same,TI (IC50/MIC50),"33 clinical VRE isolates; in vitro therapeutic index, VRE",61
same,MIC50,"33 clinical VRE isolates; median MIC, 33 clinical VRE isolates, read-out: MIC50",3.13 µM
same,MIC Range,[6]; 24 clinical MRSA isolates,0.20 to 3.13 µM
same,TI (IC50/MIC50),"[6]; in vitro therapeutic index, MRSA",238
same,MIC50,"[6]; median MIC, 24 clinical MRSA isolates, read-out: MIC50",0.78 µM
same,MIC-fold improvement vs. vancomycin,[7],up to 45
same,MIC,"[7]; C. difficile ATJ ribotype 014/20, plate drop assay",0.78 µM
same,MIC-fold improvement vs. vancomycin,[7]; listed as Vanc- 66,45
same,MIC-fold improvement vs. vancomycin,[8],≤ 58
same,MIC,"[8]; C. difficile AIU ribotype 027, plate drop assay",0.78 µM
same,MIC-fold improvement vs. vancomycin,[8]; listed as Vanc- 66,58
same,MIC,VE 148 (VanB),1.56 µM
same,MIC,VE 149 (VanB),0.78 µM
same,MIC,VE 150 (VanB),0.78 µM
same,MIC,VE 152 (VanB),0.78 µM
same,MIC,VE 157 (VanB),0.78 µM
same,MIC,VE 82 (VanC1),0.78 µM
same,MBC relative to MIC,MRSA,MBC equaling their MIC values
